Measurements as given in patent publication US10064865B2, “Composition comprising phosphodiesterase type 5 inhibitor for inhibiting apoptosis of nerve cells” (ARIBIO INC., priority 2012, dated 2018).
Marks after values point to notes of the source that are not given here.

Key:
[1] = Dissolution of test material in saline; format: physicochemical; settings: mirodenafil 2HCl
Description: The mirodenafil (mirodenafil 2HCl; SK Chemical Life Science Business, KR) was used in this experiment. […] Mirodenafil was stored at 4° C. in a refrigerator to protect from light and humidity until used. Three different dosages, 0.5, 1 and 2 mg/kg of mirodenafil were directly dissolved in saline and subcutaneously administered in a volume of 1 ml/kg on the dorsal back skins, once a day for 28 days from 24 hrs after stabilization periods from operation. In saline and neuron apoptosis control rats, equal volumes of saline as vehicle were administered, instead of mirodenafil, respectively.
The mirodenafil (mirodenafil 2HCl; SK Chemical Life Science Business, KR) was used in this experiment. […] Mirodenafil was stored at 4° C. in a refrigerator to protect from light and humidity until used. Mirodenafil were directly dissolved in saline as 1 mg/ml concentrations, and subcutaneously administered in a volume of 1 ml/kg on the dorsal back skins from 24, 72 and 168 hrs after neuron apoptosis, once a day for 14 days, respectively. In saline and neuron apoptosis control rats, equal volumes of saline as vehicle were administered, instead of mirodenafil from 24 hrs after neuron apoptosis for 20 days, respectively.

[2] = test system: neuron apoptosis-operated rats; assay: Example 2 body swing test; format: in vivo, Sprague-Dawley (SD) rats
Description: Sensorimotor function was evaluated by use of limb placing (de Ryck M et al., Stroke. 20:1383-90(1989)) and body swing (Borlongan and Sanberg, J Neurosci. 15:5372-8(1995)) tests. These tests were performed at 1 and 28 days after neuron apoptosis. The investigator performing the surgery and behavioral assessments was blinded to treatment assignment.
Body swing tests: Animals were held approximately 2 cm from the base of its tail and elevated to an inch above a surface of a table. A swing was recorded whenever the rat moved its head out of the vertical axis to either side by more than 10° from vertical and then returned to the vertical position. Thirty total swings were counted per animal. After right-hemisphere neuron apoptosis, animals tend to swing to the contralateral (left) side. Thus, the numbers and percentages of body swings to the ipsilateral (right) side were recorded as a measure of recovery, with an intact animal scoring.
(§1) All data were expressed as mean±standard deviation (S.D.) of ten rats. Multiple comparison tests for different dose groups were conducted. Variance homogeneity was examined using the Levene test (Levene A, Clin Otalary, 1981; 6:145-51). […] Statistical analyses were conducted using SPSS for Windows (Release 14K, SPSS Inc., USA; Ludbrook, Clin Exp Pharmacol Physiol, 1997; 24:294-6). In addition, the percent changes as compared with neuron apoptosis control and mirodenafil treated rats were calculated to help the understanding of the efficacy of test substances as follow Equation 6 and 7. Percentage Changes as Compared with Sham Control (%)=[((Data of neuron apoptosis control−Data of sham control rat)/Data of sham control rats)×100] [EQUATION 6] Percentage Changes as Compared with neuron apoptosis Control (%)=[((Data of test material treated rats−Data of neuron apoptosis control rats)/Data of neuron apoptosis control rats)×100] [EQUATION 7]

[3] = Example 1 body weight measurements; format: in vivo, Sprague-Dawley (SD) rats; settings: for Weight gains [B − A]: during 29 days after neuron apoptosis
[4] = test system: PARP; assay: Example 2 immunohistochemistry: PARP-immunoreactive cells; format: in vivo, Sprague-Dawley (SD) rats; settings: for Numbers of neurons: PARP+: 1 mg/kg s.c. once a day for 14 days, 29 days after neuron apoptosis
Description: The induction of neuron apoptosis was carried out by damaging the right hemisphere of the brain of animals. Specifically, animals were anesthetized with 2 or 3% isoflurane in the mixture of 70% N2O and 28.5% O2, and were maintained with 1 to 1.5% isoflurane in the mixture of 70% N2O and 28.5% O2. After that the temporalis muscle was bisected and reflected through an incision made midway between the eye and the eardrum canal. The proximal MCA was exposed through a subtemporal craniectomy by microdental drills without removing the zygomatic arch and without transecting the facial nerve. […] Mortality was less than 5%. For sham control, all procedures were performed in the same way, with the exception of the occlusion of the MCA.
After deparaffinized of prepared […] histological paraffin sections, citrate buffer antigen (epitope) retrieval pretreatment were conducted as previously (Shi S R et al., J Histochem Cytochem. 41:1599-604(1993)). Briefly, pre-heat water bath with staining dish containing 10 mM citrate buffers (pH 6.0) until temperature reaches 95-100° C. Immerse slides in the staining dish and place the lid loosely on the staining dish. Incubate for 20 minutes and turn off the water bath. Place the staining dish at room temperature and allow the slides to cool for 20 minutes. After epitope retrievals, sections were immunostained using avidin-biotin complex (ABC) methods for caspase-3 and PARP. Endogenous peroxidase activity was blocked by incubated in methanol and 0.3% H2O2 for 30 minutes, and non-specific binding of immunoglobulin was blocked with normal horse serum blocking solution (Vector Lab., Burlingame, Calif., USA. Dilution 1:100) for 1 hr in humidity chamber. Primary antiserum were treated for overnight at 4° C. in humidity chamber, and then incubated with biotinylated universal secondary antibody (Vector Lab., Dilution 1:50) and ABC reagents (Vectastain Elite ABC Kit, Vector Lab., Dilution 1:50) for 1 hr at room temperature in humidity chamber. Finally, reacted with peroxidae substrate kit (Vector Lab.) for 3 min at room temperature. All sections were rinse in 0.01M PBS for 3 times, between steps. The neurons occupied by over 10% of immunoreactivities, the density, of each antiserum for caspase-3 and PARP were regarded as positive, and the mean numbers of caspase-3 and PARPimmunoreactive cells dispersed in the mm^2 of ipsilateral peri-infarct/defect cerebral cortex were counted using an automated image analysis process as establish methods (Lee et al., 2010; Song et al., 2012), respectively. The histopathologist was blinded to the group distribution when performing the analysis.
as §1

[5] = 1 mg/kg from 24 hrs after surgery
[6] = 1 mg/kg from 72 hrs after surgery
[7] = 1 mg/kg from 168 hrs after surgery

## CCCOc1ccc(S(=O)(=O)N2CCN(CCO)CC2)cc1-c1nc2c(CCC)cn(CC)c2c(=O)[nH]1 [Mirodenafil, mirodenafil]
[1]
  solubility in saline: well dissolved in saline
[2]; [5]
  numbers and percentages of body swings to ipsilateral right sides at 28 days, change as compared with neuron apoptosis control: 82.00%
[2]; [6]
  numbers and percentages of body swings to ipsilateral right sides at 28 days, change as compared with neuron apoptosis control: 48.00%
[2]; [7]
  numbers and percentages of body swings to ipsilateral right sides at 28 days, change as compared with neuron apoptosis control: 14.00%
[3]; 0.5 mg/kg
  body weight gains during 29 days, change as compared with neuron apoptosis control: 45.53%
[3]; 0.5 mg/kg s.c. once a day
  Body weights at 29 days after surgery [B]: 502.60 ± 23.09^a
  Weight gains [B − A]: −7.60 ± 9.19^a g
[3]; 1 mg/kg s.c. once a day
  Body weights at 29 days after surgery [B]: 526.40 ± 23.45^bd
  Weight gains [B − A]: 16.10 ± 7.80^ac g
[3]; 2 mg/kg s.c. once a day
  Body weights at 29 days after surgery [B]: 520.90 ± 30.21^b
  Weight gains [B − A]: 7.50 ± 11.20^ac g
[4]; [5]
  numbers of PARP-immunoreactive neurons at 29 days, change as compared with neuron apoptosis control: −53.92%
[4]; [6]
  numbers of PARP-immunoreactive neurons at 29 days, change as compared with neuron apoptosis control: −39.72%
[4]; [7]
  numbers of PARP-immunoreactive neurons at 29 days, change as compared with neuron apoptosis control: −15.68%
[4]; start 24 hrs after operation
  Numbers of neurons: PARP+: 36.14 ± 5.32^ab cells/mm^2 of cerebral cortex
[4]; start 72 hrs after operation
  Numbers of neurons: PARP+: 47.28 ± 5.36^ab cells/mm^2 of cerebral cortex
[4]; start 168 hrs after operation
  Numbers of neurons: PARP+: 66.13 ± 9.61^ac cells/mm^2 of cerebral cortex
